Assay results from patent US7985751B2, “Piperazine derivatives” (M's Science Corporation, priority 2005, dated 2011).
Structures can show the parent of a compound that is named as a salt.

Columns and labels:
σ1 receptors = biological target: T1, σ1 receptors (Homo sapiens, UniProt Q99720); experiment: σ1 receptor binding assay ((+)-[3H]pentazocine displacement, HEK-293 cell membranes); details: for affinity for sigma receptors, in particular sigma-1 receptors: result in words
T1 construct: incubating 50 μg of HEK-293 cell membranes with 10 nM (+)-[^3H]-pentazocine; endogenous in cells; host or cells: HEK-293
T1 sequence (Q99720 whole entry): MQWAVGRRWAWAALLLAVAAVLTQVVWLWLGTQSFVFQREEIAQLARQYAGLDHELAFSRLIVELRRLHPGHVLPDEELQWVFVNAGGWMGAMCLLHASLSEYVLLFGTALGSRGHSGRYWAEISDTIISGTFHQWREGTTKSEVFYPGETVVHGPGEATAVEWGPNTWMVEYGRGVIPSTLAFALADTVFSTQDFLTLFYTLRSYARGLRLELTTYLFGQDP
Experimental: (§1) Sigma 1 (σ1) and sigma 2 (σ2) receptor binding assays are carried out in membranes from HEK-293 (Human Embryonic Kidney) cells.
(§2) Confluent HEK-293 cells are harvested in PBS/5 mM EDTA. They are centrifuged at 2000 rpm for 5 min and then washed two times in PBS. Cells are homogenized in 20 mM Tris-HCL (pH=7.5) containing 5 mM EDTA, 0.5 mM PMSF and 0.5 μg/ml leupeptin using a Dounce homogenizer and sonicated for 5 minutes.
Nuclear debris and intact cells are removed by centrifugation at 3000 rpm for 10 minutes at 4° C. The supernatant is centrifuged at 12000 rpm for 30 minutes and the resulting pellet is resuspended in 25 mM Tris-HCL (pH=7.5), 25 mM Mg2Cl, 10% sucrose containing 0.5 mM PMSF, 2 mM AEBSF, 1 mM EDTA, 130 μM bestatin, 14 μM E-64, 1 μM leupeptin, and 0.3 mM aprotinin.
Proteins are determined using the Bio Rad Protein Assay Dye Reagent and the membranes are aliquoted and frozen at −80° C.
The binding assays are performed in 96-well plates.
σ1 receptors are labeled using the σ1 selective probe (+)-[^3H] Pentazocine (Bowen W D et al, Mol Neuropharmacol 3, 117-126, 1993).
Total binding is determined by incubating 50 μg of HEK-293 cell membranes with 10 nM (+)-[^3H]-pentazocine (Perkin-Elmer, 35 Ci/mmol) and assay buffer (50 mM Tris-HCl, pH=8.3) in a total volume of 200 μl. Non specific binding is determined in the presence of 10 μM unlabeled pentazocine. For competition experiments, 50 μl of displacing compound is added at 8 different concentrations. Incubations are carried out for 120 min at 37° C. Assays are terminated by dilution with ice-cold 10 mM Tris-HCl, pH=8.3 and vacuum filtration through glass fibers using a Skatron cell harvester from Molecular Devices. The filters are washed three times and the membrane-bound radioactivity is determined in a Microbeta scintillation counter.
Filters are soaked in 0.5% polyethyleneimine for 1 hour before use.
(§3) Specific binding is determined by subtraction of non specific binding from total binding. […]

σ2 receptors = biological target: T2, σ2 receptors (Homo sapiens, UniProt Q5BJF2); experiment: σ2 receptor binding assay ([3H]DTG displacement with σ1 masked by pentazocine, HEK-293 cell membranes); details: σ1 versus σ2 binding, result in words
T2 construct: incubating 50 μg of HEK-293 cell membranes with 10 nM [^3H]-DTG; endogenous in cells; host or cells: HEK-293
T2 sequence (Q5BJF2 whole entry): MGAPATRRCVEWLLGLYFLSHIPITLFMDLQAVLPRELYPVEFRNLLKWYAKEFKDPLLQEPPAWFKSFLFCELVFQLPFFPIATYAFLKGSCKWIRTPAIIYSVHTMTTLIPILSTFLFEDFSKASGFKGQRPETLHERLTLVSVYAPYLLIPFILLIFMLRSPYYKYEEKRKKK
Experimental: as §1, §2
Nuclear debris and intact cells are removed by centrifugation at 3000 rpm for 10 minutes at 4° C. […]
Proteins are determined using the Bio Rad Protein Assay Dye Reagent and the membranes are aliquoted and frozen at −80° C. […]
Total binding is determined by incubating 50 μg of HEK-293 cell membranes with 10 nM [^3H]-DTG (Perkin-Elmer, 58 Ci/mmol) in the presence of 10 μM pentazocine and assay buffer (50 mM Tris-HCl, pH=8.3) in a total volume of 200 μl. Non specific binding is determined in the presence of 10 μM unlabeled DTG. […] The filters are washed three times and the membrane-bound radioactivity is determined in a Microbeta scintillation counter. […]
as §3

[1] = tested on: sigma receptor-mediated neck dystonia in rats; details: microinjection, Nakazawa M et al 1999; cited from earlier work

SMILES | affinity for sigma receptors, in particular sigma-1 receptors (σ1 receptors) | selectivity for σ1 receptor over σ2 receptor (σ2 receptors) | induction of neck dystonia [1] | IC50 (σ1 receptors) [nM]
Fc1ccccc1CCN1CCN(CCCc2ccccc2)CC1 [Example 4, 1-[2-(2-Fluorophenyl)ethyl]-4-(3-phenylpropyl)piperazine dihydrochloride] | especially good | especially good |  | 
COc1ccc(CCN2CCN(CCCc3ccccc3)CC2)cc1OC [SA-4503, 1-[2-(3,4-dimethoxyphenyl)ethyl]-4-(3-phenylpropyl)piperazine] |  |  | no effect | 
COc1cc(CCN2CCN(CCCc3ccccc3)CC2)cc(OC)c1OC.Cl [1-[2-(3,4,5-trimethoxyphenyl)ethyl]-4-(3-phenylpropyl)piperazine hydrochloride] | high affinity | highly selective |  | < 300
Cc1ccccc1NC(=N)Nc1ccccc1C [DTG, 1,3-di-2-tolyl-guanidine] |  |  | induced neck dystonia | 
